Measurements from publication PMC5299686, “Betanodavirus-like particles enter host cells via clathrin-mediated endocytosis in a cholesterol-, pH- and cytoskeleton-dependent manner” (Veterinary Research, 2017).
Where two headings read alike, the source gives them in different places.

What was measured:
[1] = test system: RBS entry into SB cells; test: VLP (RBS) entry assay with inhibitor or siRNA perturbation, ELISA quantitation; format: cell-based, Lates calcarifer; conditions: for change of RBS entry efficiency compared with untreated cells: 2 h entry
Experimental: (§1) Virus-like particles entry (invasion) assays were performed using SB or other indicated cells as described. In brief, the cells were seeded on coverslips in 12-well plates or cultured in 96-well plates for 18 or 24 h to achieve 70% confluence, pretreated with the indicated inhibitors at the indicated temperature (26 °C for fish cells, 28 °C for insect cells, and 37 °C for mammalian cells) and concentration (Table 1) for 1 h, and then incubated with RBS or CGV in the presence of the inhibitors for 1 h on ice. After that, the cells were washed three times with pre-cooling PBS, shifted to 28 °C to start entry, and visualized directly by fluorescent microscopy for CGV entry kinetics, or fixed for IFA followed by fluorescent microscopy, or collected for ELISA at the indicated times. In the untreated (positive) or mock-infected (negative) controls, the cells were subjected to no inhibitor treatment or no VLP incubation respectively. The entry assay of each inhibitor was repeated at least three times.
Six wells of cells in a 96-well plate treated with the same condition in entry assays were washed thoroughly with PBS, lysed with 20 μL of lysis buffer in each well and combined as one sample. Endogenous β-actin was used as an internal normalization control for ELISA. Three-hundred microliters of 30-fold diluted lysate for VLP detection or 100-fold diluted lysate for β-actin detection were coated equally in three wells of a 96-well microtiter plate at 4 °C overnight, respectively. The plate was conducted to room temperature and washed three times with 200 μL PBS. After blocking with 5% bovine serum albumin (BSA) in PBS for 1 h at room temperature and washing three times (all washes below indicate triplicate washings) with 200 μL PBS containing 0.05% Tween20 (PBST), the plate was incubated with in-house produced mouse anti-VLP antiserum at a dilution of 1:2000 in PBS for 1 h. The plate was washed and peroxidase-conjugated goat anti-mouse IgG (Sigma) at a dilution of 1:3000 in PBS was added and incubated for 1 h. Following thorough washings (five times), 100 μL of OPD substrate (Sigma) was added and the color development was conducted at room temperature. The reaction was stopped by the addition of 4 M sulfuric acid and the absorbance at 492 nm was determined. The OD492 of each sample including treated and untreated cells was normalized with the corresponding OD492 of β-actin to obtain the relative VLP quantity. The entry efficiency was generated as the percentage of treated cells with incorporated VLP relative to that for untreated cells. The VLP entry efficiency of untreated cells was arbitrarily set as 100%. The data shown are the mean ± SD of the results from three independent experiments. Statistical differences of VLP content from different groups were assessed by paired Student’s t tests. Numerical results are presented as mean ± SD with 95% confidence intervals and p < 0.05 was considered statistically significant (*, p < 0.05; **, p < 0.01).

[2] = test system: RBS entry into SB cells; test: VLP (RBS) entry assay, IFA and fluorescent microscopy; format: cell-based, Lates calcarifer; conditions: at the working concentrations (CPZ 1 to 70 μM; dynasore 1, 10, 80 μM; siRNA 48 h post-transfection)
Experimental: (§2) Virus-like particles entry (invasion) assays were performed using SB or other indicated cells as described. In brief, the cells were seeded on coverslips in 12-well plates or cultured in 96-well plates for 18 or 24 h to achieve 70% confluence, pretreated with the indicated inhibitors at the indicated temperature (26 °C for fish cells, 28 °C for insect cells, and 37 °C for mammalian cells) and concentration (Table 1) for 1 h, and then incubated with RBS or CGV in the presence of the inhibitors for 1 h on ice. […]
(§3) Cells were washed twice with PBS, fixed with 4% paraformaldehyde for 15 min, permeated with 0.2% Triton X-100 for 10 min, and then blocked with 5% BSA for 1 h. […] For identification of entry and trafficking of RBS in cells, images were acquired using a laser scanning confocal fluorescence microscope (TCS-SP5, Leica Microsystems Wetzlar GmbH Inc., Germany). Images were acquired randomly from 5 different fields of view per coverslip to get more than 20 cells and to allow observing the signals of targets and nuclei fluorescence by Leica Application Suite (2.6.0 build 7266). […] The results are expressed as the mean ± standard deviation (SD).

[3] = test system: SB cells; test: Cytotoxicity assay (CellTiter 96 AQueous One Solution Cell Proliferation Assay)
Experimental: To optimize the working concentration of the inhibitors, the cytotoxicity of the drugs to SB cells were evaluated. SB cells grown in 96-well plates were treated with the inhibitors at different concentrations for 4 h. Then cell viability was assayed using CellTiter 96® AQueous One Solution Cell Proliferation Assay (Promega, USA) according to the manufacturer’s instructions.

[4] = test system: RBS entry into GB cells; test: VLP entry assay and IFA on GB cells; format: cell-based, Epinephelus coioides; conditions: GB cells pretreated with CPZ for 1 h
Experimental: as §2, §3

[5] = test system: RBS entry into SSN-1 cells; test: VLP entry assay and IFA on SSN-1 cells; format: cell-based, Channa striatus; conditions: SSN-1 cells pretreated with CPZ for 1 h
Experimental: as §2, §3

[6] = test system: CGV entry into SB cells; test: CGV entry assay, ELISA quantitation; format: cell-based, Lates calcarifer
Experimental: as §1, with “In the untreated (positive) or mock-infected (negative) controls, the cells were subjected to no inhibitor treatment or no VLP incubation respectively. The entry assay of each inhibitor was repeated at least three times.” left out
Six wells of cells in a 96-well plate treated with the same condition in entry assays were washed thoroughly with PBS, lysed with 20 μL of lysis buffer in each well and combined as one sample. […] The reaction was stopped by the addition of 4 M sulfuric acid and the absorbance at 492 nm was determined. The OD492 of each sample including treated and untreated cells was normalized with the corresponding OD492 of β-actin to obtain the relative VLP quantity. […] Statistical differences of VLP content from different groups were assessed by paired Student’s t tests. […]

[7] = Lates calcarifer, read-out: RBS entry blocked (inhibited)
[8] = 40 μM inhibitor alone, SB cells, ELISA
[9] = 1 mM inhibitor, SB cells, ELISA

O=C(N/N=C/c1ccc(O)c(O)c1)c1cc2ccccc2cc1O [dynasore]
VLP entry efficiency (untreated cells = 100%) ([1]; 1 μM inhibitor, SB cells, ELISA): 71.4% | VLP entry efficiency (untreated cells = 100%) ([1]; 10 μM inhibitor, SB cells, ELISA): 48.5% | VLP entry efficiency (untreated cells = 100%) ([1]; 80 μM inhibitor, SB cells, ELISA): 40% | fluorescent signal of RBS in cells (IFA) compared with untreated cells [2]: significantly reduced | MC, max concentration that can be used without cytotoxicity ([3]; SB cells, 4 h treatment): 800 µM

O=c1c(-c2ccc(O)cc2)coc2cc(O)cc(O)c12 [genistein]
entry quantity of VLP compared with mock-treated control ([1]; 100 μM inhibitor, SB cells, ELISA): 88% | MC, max concentration that can be used without cytotoxicity ([3]; SB cells, 4 h treatment): 100 µM

CN(C)CCCN1c2ccccc2Sc2ccc(Cl)cc21 [CPZ, chlorpromazine]
change of RBS entry efficiency compared with untreated cells ([1]; 7 μM inhibitor alone, SB cells, ELISA): dramatically reduced | VLP entry efficiency (untreated cells = 100%) ([1]; 70 μM inhibitor, SB cells, ELISA): 5% | inhibition at 1 µM [1, 7]: 70% | inhibition at 7 µM [1, 7]: 80% | inhibition at 70 µM [1, 7]: 95% | VLP entry efficiency in treated compared with untreated samples (IFA) [4]: dramatically decreased | fluorescent signal of RBS in cells (IFA) compared with untreated cells [2]: significantly reduced | VLP entry efficiency in treated compared with untreated samples (IFA) [5]: dramatically decreased | MC, max concentration that can be used without cytotoxicity ([3]; SB cells, 4 h treatment): 700 µM

C=C1[C@@H](C)[C@H]2[C@H](Cc3ccccc3)NC(=O)[C@]23[C@H](OC(C)=O)/C=C/[C@@](C)(O)C(=O)[C@@H](C)C/C=C/[C@H]3[C@@H]1O [CytD, cytochalasin D]
inhibition at 1 µM [1, 7]: 83.2% | inhibition at 10 µM [1, 7]: 96% | inhibition at 77.8 µM [1, 7]: 96.5% | MC, max concentration that can be used without cytotoxicity ([3]; SB cells, 4 h treatment): 77.8 µM

COC(=O)Nc1nc2ccc(C(=O)c3cccs3)cc2[nH]1 [nocodazole]
inhibition at 1 µM [1, 7]: 59.4% | inhibition at 5 µM [1, 7]: 74% | inhibition at 50 µM [1, 7]: 81.3% | MC, max concentration that can be used without cytotoxicity ([3]; SB cells, 4 h treatment): 160 µM

O=S(=O)(c1cccc2c(I)cccc12)N1CCCNCC1 [ML-7]
change of RBS entry efficiency compared with untreated cells [1, 8]: no statistically significant change | MC, max concentration that can be used without cytotoxicity ([3]; SB cells, 4 h treatment): 40 µM

COC[C@H]1OC(=O)c2coc3c2[C@@]1(C)C1=C(C3=O)[C@@H]2CCC(=O)[C@@]2(C)C[C@H]1OC(C)=O [wortmannin]
inhibition at 1 µM [1, 7]: -1.4% | inhibition at 10 µM [1, 7]: 0.82% | inhibition at 50 µM [1, 7]: 23% | MC, max concentration that can be used without cytotoxicity ([3]; SB cells, 4 h treatment): 50 µM

CCN(CC)CCCC(C)Nc1nc(C)cc(Nc2ccc3nc(C)cc(N)c3c2)n1 (centres unmarked) [NSC23766]
change of RBS entry efficiency compared with untreated cells [1, 8]: no statistically significant change | MC, max concentration that can be used without cytotoxicity ([3]; SB cells, 4 h treatment): 40 µM

Oc1ccc2ccccc2c1SSc1c(O)ccc2ccccc12 [IPA-3]
change of RBS entry efficiency compared with untreated cells [1, 8]: no statistically significant change | MC, max concentration that can be used without cytotoxicity ([3]; SB cells, 4 h treatment): 40 µM

methyl-β-cyclodextrin [MβCD]
RBS entry blocked (inhibited) ([1]; 0.5 mM inhibitor, SB cells, ELISA): 63.6% | RBS entry blocked (inhibited) [1, 9]: 59.5% | RBS entry blocked (inhibited) ([1]; 2 mM inhibitor, SB cells, ELISA): 74.4%

CC(C)CCC[C@@H](C)[C@H]1CC[C@H]2[C@@H]3CC=C4C[C@@H](O)CC[C@]4(C)[C@H]3CC[C@]12C [cholesterol]
effect of cholesterol supplement on CGV entry ([6]; SB cells not treated with MβCD): did not enhance the entry of CGV | CGV entry efficiency after cholesterol replenishment compared with mock-treated cells ([6]; SB cells pretreated with 5 mM MβCD, then exogenous cholesterol 0.8 μg/μL for 1 h): 57%

CC(=O)c1c(O)c(C)c(O)c(Cc2c(O)c3c(c(C(=O)/C=C/c4ccccc4)c2O)OC(C)(C)C=C3)c1O [rottlerin]
change of RBS entry efficiency compared with untreated cells [1, 8]: no statistically significant change | MC, max concentration that can be used without cytotoxicity ([3]; SB cells, 4 h treatment): 40 µM

Cl.N [NH4Cl, ammonia chloride]
VLP entry efficiency (untreated cells = 100%) ([1]; 50 mM inhibitor, SB cells, ELISA): 25% | MC, max concentration that can be used without cytotoxicity [3]: 50 000 μM

CCN(CC)CCCC(C)Nc1ccnc2cc(Cl)ccc12 (centres unmarked) [chloroquine]
RBS entry blocked (inhibited) [1, 9]: totally block | inhibition at 10 µM [1, 7]: > 70% | MC, max concentration that can be used without cytotoxicity ([3]; SB cells, 4 h treatment): 1000 µM

CN(C)C[C@H](O)Cn1c2ccc(Br)cc2c2cc(Br)ccc21 (racemic) [wiskostatin]
inhibition at 1 µM [1, 7]: 77.9% | inhibition at 10 µM [1, 7]: 84.6% | inhibition at 50 µM [1, 7]: 94.2% | MC, max concentration that can be used without cytotoxicity ([3]; SB cells, 4 h treatment): 50 µM
